Test results: patent US4360595A, “Fermentation process for producing anandimycin” (Bristol-Myers Company, priority 1981, dated 1982)
≈ marks a conversion by molar mass, not a printed value. Entries after “also recorded” stand apart in the source; their conditions may differ. Read-outs that look alike come from different tables or passages of the source.

How the values were obtained:
E. coli = assay: lysogenic bacterial induction (ILB) assay; format: cell-based
From the text: Analytical high pressure liquid chromatography, Bacillus subtilis zone of inhibition, lysogenic bacterial induction and P388 mouse tumor assays are used throughout the above-described separation processes to monitor relative levels of anandimycin and co-produced substances.

P-388 leukemia = assay: transplantable mouse tumor P-388 leukemia; format: in vivo, mouse (CDF1 female mice); settings: for MST: control 9.0 days; for Effect MST % T/C: ≥ 125 significant
Procedure: Anandimycin was also tested against the transplantable mouse tumor P-388 leukemia. The methodology used generally followed the protocols of the National Cancer Institute (Cancer Chemotherapy Rep., Part 3, 3, 1-103 (1972). The essential experimental details are given at the bottom of the following table. Two different dose regimens are tested: single dose on day 1 and three doses given on days 1, 5 and 9. The optimal dose was 64 mg/kg. single dose.
Tumor inoculum: 10^6 ascites cells implanted
Host: CDF1 .female. mice
Evaluation: MST = median survival
Effect: % T/C = (MST treated/MST control) ×
Criteria: % T/C ≥ 125 considered significant antitumor
Tox: […] 4/6 mice alive on day 5
AWC = average weight gain (treatedcontrol) in grams (on day 4)

[1] = antimicrobial / antibiotic activity (in words); format: cell-based
E. coli 15119 = assay: in vitro MIC, standard tube dilution procedure; format: cell-based
Procedure: (§1) The in vitro minimum inhibitory concentrations (MIC) of anandimycin were determined against a variety of microorganisms using the standard tube dilution procedure.

E. coli 20341-1 = assay: in vitro MIC, standard tube dilution procedure; format: cell-based
Procedure: as §1

Ent. cloacae 9659 = assay: in vitro MIC, standard tube dilution procedure; format: cell-based
Procedure: as §1

K. pneumoniae 15130 = assay: in vitro MIC, standard tube dilution procedure; format: cell-based
Procedure: as §1

Pr. mirabilis 9900 = assay: in vitro MIC, standard tube dilution procedure; format: cell-based
Procedure: as §1

Pr. vulgaris 21559 = assay: in vitro MIC, standard tube dilution procedure; format: cell-based
Procedure: as §1

Ps. aeruginosa 9843A = assay: in vitro MIC, standard tube dilution procedure; format: cell-based; settings: Pseudomonas aeruginosa, read-out: Minimum Inhibitory Concentration
Procedure: as §1

Ser. marcescens 20019 = assay: in vitro MIC, standard tube dilution procedure; format: cell-based
Procedure: as §1

[2] = system: Staph. aureus (penicillin-resistant) 9606; assay: in vitro MIC, standard tube dilution procedure; format: cell-based; settings: Staphylococcus aureus, read-out: Minimum Inhibitory Concentration
Procedure: as §1

Staph. aureus 9587 = assay: in vitro MIC, standard tube dilution procedure; format: cell-based
Procedure: as §1

Str. faecalis 20,588 = assay: in vitro MIC, standard tube dilution procedure; format: cell-based; settings: Enterococcus faecalis, read-out: Minimum Inhibitory Concentration
Procedure: as §1

Str. pneumoniae 9585 = assay: in vitro MIC, standard tube dilution procedure; format: cell-based
Procedure: as §1

Str. pyogenes 9604 = assay: in vitro MIC, standard tube dilution procedure; format: cell-based
Procedure: as §1

[3] = solubility in organic solvents (trituration, chromatography); format: physicochemical; settings: for solubility in chromatography solvents: solvents for (preparative) chromatography
From the text: The solids obtained from extraction of the whole broth are next washed with diethyl ether to remove any lard oils and antifoams used in the fermentation. […] To remedy this problem a simple organic solvent trituration scheme was developed which effects a gross separation of the yellow pigments and another class of antitumor agents produced by strain C-22,437 (rachelmycin) from anandimycin on the basis of differential solubility. […] The first step involves trituration of the extraction solids with acetone. The resulting filtrate contains another antitumor substance which is active in the lysogenic bacteria induction assay and the P388 mouse tumor system (rachelmycin). The insoluble solid from the acetone trituration contains the yellow pigments along with a complex of anandimycin and another similar compound. The second phase of the process involves trituration with a ternary organic solvent system 40:30:30(^v/v) chloroform:methanol:tetrahydrofuran. The soluble fraction contains the yellow pigments. […] Substantially pure anandimycin is separated from the enriched mixture using high pressure liquid chromatography on silica gel as described in more detail below.
The analytical solvent system routinely used is hexane:ethyl acetate:isopropanol (30:70:3^v /v) along with 0.1 to 0.4 part water depending on the relative activity state of the silica gel surface in the column being used. If tailing effects are observed, then typically one increases the water content of the solvent system within the 0.1-0.4 part range to improve peak symmetry, thereby permitting a more quantitative analysis.
The preparative solvent system is ethyl acetate:isopropanol:water (87:13:0.5^v /v). […] A shave-recycle method involves increasing the effective silica gel column length through the employment of continuous multiple pass chromatography of the anandimycin-component II band. […] Initial chromatography gave anandimycin enriched to 70-85% purity. Accumulated solids are rechromatographed to yield material of >90% purity. […]

tumors = assay: antitumor activity (in words); design: species or system experimental animals; settings: in vivo
[4] = biological activity (in words)

## COc1c(O)c2c(c3cc(C(=O)N4CCc5c4c(O)c(OC)c4[nH]c(C(=O)N6CC7CC78C6=CC(=O)c6[nH]cc(C)c68)cc54)[nH]c13)CCN2C(N)=O (stereo not shown) [rachelmycin, reference compound]
E. coli
  lysogenic bacterial induction activity: active; also recorded: possesses both antibiotic and lysogenic bacterial induction activity
P-388 leukemia; filtrate of acetone trituration
  activity in the P388 mouse tumor system: active
[1]
  antimicrobial / antibiotic activity: possesses both antibiotic and lysogenic bacterial induction activity

## C=Cc1cc(OC)c2c(c1)c(=O)oc1c2cc(OC)c2c(O)ccc(C3OC(C(C)O)C(O)C3O)c21 (stereo not shown) [Anandimycin]
E. coli 15119; Escherichia coli, 15119, read-out: Minimum Inhibitory Concentration
  MIC: > 63 µg/mL
E. coli 20341-1; Escherichia coli, 203411, read-out: Minimum Inhibitory Concentration
  MIC: > 63 µg/mL
Ent. cloacae 9659; Enterobacter cloacae, 9659, read-out: Minimum Inhibitory Concentration
  MIC: > 63 µg/mL
K. pneumoniae 15130; Klebsiella pneumoniae, 15130, read-out: Minimum Inhibitory Concentration
  MIC: > 63 µg/mL
Pr. mirabilis 9900; Proteus mirabilis, 9900, read-out: Minimum Inhibitory Concentration
  MIC: > 63 µg/mL
Pr. vulgaris 21559; Proteus vulgaris, 21559, read-out: Minimum Inhibitory Concentration
  MIC: 2 µg/mL (≈ 4.04 µM)
Ps. aeruginosa 9843A; 9843A
  MIC: > 63 µg/mL
Ser. marcescens 20019; Serratia marcescens, 20019, read-out: Minimum Inhibitory Concentration
  MIC: > 63 µg/mL
[2]
  MIC: 0.25 µg/mL (≈ 0.506 µM)
Staph. aureus 9587; Staphylococcus aureus, 9587, read-out: Minimum Inhibitory Concentration
  MIC: 0.06 µg/mL (≈ 0.121 µM)
Str. faecalis 20,588
  MIC: 0.016 µg/mL (≈ 0.0324 µM)
Str. pneumoniae 9585; Streptococcus pneumoniae, 9585, read-out: Minimum Inhibitory Concentration
  MIC: 0.13 µg/mL (≈ 0.263 µM)
Str. pyogenes 9604; Streptococcus pyogenes, 9604, read-out: Minimum Inhibitory Concentration
  MIC: 0.13 µg/mL (≈ 0.263 µM)
E. coli; above 1.6 μg/ml
  toxicity to the host organism (E. coli): toxic to the host organism
E. coli; maximum concentration of 1.6 μg/ml
  ILB activity: completely devoid of ILB activity
P-388 leukemia; d.1,5&9, IP, 0.5 mg/kg/inj.
  AWC Day 4: -0.1 gm.
  Survivors Day 5(30): 6/6
  MST: 9.0 days
  Effect MST % T/C: 100%
P-388 leukemia; d.1,5&9, IP, 1 mg/kg/inj.
  AWC Day 4: +0.6 gm.
  Survivors Day 5(30): 6/6
  MST: 9.0 days
  Effect MST % T/C: 100%
P-388 leukemia; d.1,5&9, IP, 2 mg/kg/inj.
  AWC Day 4: +0.2 gm.
  Survivors Day 5(30): 6/6
  MST: 9.0 days
  Effect MST % T/C: 100%
P-388 leukemia; d.1,5&9, IP, 4 mg/kg/inj.
  AWC Day 4: +0.7 gm.
  Survivors Day 5(30): 6/6
  MST: 10.5 days
  Effect MST % T/C: 117%
P-388 leukemia; d.1,5&9, IP, 8 mg/kg/inj.
  AWC Day 4: +0.2 gm.
  Survivors Day 5(30): 6/6
  MST: 13.5 days
  Effect MST % T/C: 150%
P-388 leukemia; d.1,5&9, IP, 16 mg/kg/inj.
  AWC Day 4: 0 gm.
  Survivors Day 5(30): 5/5
  MST: 13.0 days
  Effect MST % T/C: 144%
P-388 leukemia; d.1, IP, 0.5 mg/kg/inj.
  AWC Day 4: -0.1 gm.
  Survivors Day 5(30): 6/6
  MST: 9.0 days
  Effect MST % T/C: 100%
P-388 leukemia; d.1, IP, 1 mg/kg/inj.
  AWC Day 4: -0.1 gm.
  Survivors Day 5(30): 6/6
  MST: 9.0 days
  Effect MST % T/C: 100%
P-388 leukemia; d.1, IP, 2 mg/kg/inj.
  AWC Day 4: -0.2 gm.
  Survivors Day 5(30): 5/5
  MST: 10.0 days
  Effect MST % T/C: 111%
P-388 leukemia; d.1, IP, 4 mg/kg/inj.
  AWC Day 4: -0.9 gm.
  Survivors Day 5(30): 6/6
  MST: 10.0 days
  Effect MST % T/C: 111%
P-388 leukemia; d.1, IP, 8 mg/kg/inj.
  AWC Day 4: -0.2 gm.
  Survivors Day 5(30): 6/6
  MST: 11.5 days
  Effect MST % T/C: 128%
P-388 leukemia; d.1, IP, 16 mg/kg/inj.
  AWC Day 4: -0.6 gm.
  Survivors Day 5(30): 6/6
  MST: 11.0 days
  Effect MST % T/C: 122%
P-388 leukemia; d.1, IP, 32 mg/kg/inj.
  AWC Day 4: -0.6 gm.
  Survivors Day 5(30): 6/6
  MST: 13.0 days
  Effect MST % T/C: 144%
P-388 leukemia; d.1, IP, 64 mg/kg/inj.
  AWC Day 4: -0.3 gm.
  Survivors Day 5(30): 6/6
  MST: 14.5 days
  Effect MST % T/C: 161%
P-388 leukemia; single dose
  optimal dose: 64 mg/kg
[1]
  antimicrobial / antibiotic activity: exhibit antimicrobial activity
[3]; acetone, 40:30:30 chloroform:methanol:tetrahydrofuran
  solubility in trituration solvents: insoluble
[3]
  solubility in chromatography solvents: poor solubility
tumors
  antitumor activity: inhibit the growth of tumors in experimental animals

## COc1cc2c(oc(=O)c3cc(O)cc(OC)c32)c2c(C3OC(C(C)O)C(O)C3O)ccc(O)c12 (stereo not shown) [Component II]
E. coli 15119; Escherichia coli, E. coli 15119, read-out: Minimum Inhibitory Concentration
  MIC: > 63 µg/mL
E. coli 20341-1; Escherichia coli, 203411, E. coli 20341-1, read-out: Minimum Inhibitory Concentration
  MIC: > 63 µg/mL
Ent. cloacae 9659; Enterobacter cloacae, Ent. cloacae 9659, read-out: Minimum Inhibitory Concentration
  MIC: > 63 µg/mL
K. pneumoniae 15130; Klebsiella pneumoniae, K. pneumoniae 15130, read-out: Minimum Inhibitory Concentration
  MIC: > 63 µg/mL
Pr. mirabilis 9900; Proteus mirabilis, Pr. mirabilis 9900, read-out: Minimum Inhibitory Concentration
  MIC: > 63 µg/mL
Pr. vulgaris 21559; Proteus vulgaris, Pr. vulgaris 21559, read-out: Minimum Inhibitory Concentration
  MIC: > 63 µg/mL
Ps. aeruginosa 9843A; Ps. aeruginosa 9843A
  MIC: > 63 µg/mL
Ser. marcescens 20019; Serratia marcescens, Ser. marcescens 20019, read-out: Minimum Inhibitory Concentration
  MIC: > 63 µg/mL
[2]
  MIC: 0.5 µg/mL (≈ 1.03 µM)
Staph. aureus 9587; Staphylococcus aureus, Staph. aureus 9587, read-out: Minimum Inhibitory Concentration
  MIC: 0.13 µg/mL (≈ 0.268 µM)
Str. faecalis 20,588; Str. faecalis 20,588
  MIC: 0.13 µg/mL (≈ 0.268 µM)
Str. pneumoniae 9585; Streptococcus pneumoniae, Str. pneumoniae 9585, read-out: Minimum Inhibitory Concentration
  MIC: 0.25 µg/mL (≈ 0.516 µM)
Str. pyogenes 9604; Streptococcus pyogenes, Str. pyogenes 9604, read-out: Minimum Inhibitory Concentration
  MIC: 0.5 µg/mL (≈ 1.03 µM)
[3]
  solubility in chromatography solvents: poor solubility
[4]
  biological activity: biologically inactive
